Measured values published in patent US20240270821A1, “GIP/GLP1/GCG TRI-RECEPTOR AGONISTS AND USES THEREOF” (priority 2023, published 2024).
Where two headings read alike, the source gives them in different places. Starred links: 1 amine or outer side, 2 acyl side, 3 side chain; linkers in the order of their positions; H or OH if unused. Non-standard residues stand in square brackets, D forms with d. Residues, ends and D or L forms follow the SMILES beside them. Groups on a side chain read outwards from the residue. No end group written: not given here. *: point of attachment. C20 diacid = O=C(O)CCCCCCCCCCCCCCCCCCC(=O)*; C18 diacid = O=C(O)CCCCCCCCCCCCCCCCC(=O)*; αMePhe(2-F) = C[C@](N)(Cc1ccccc1F)C(=O)O; γGlu = O=C(O)[C@H](CCC(=O)[*:2])N[*:1]; αMe4Pal = C[C@](N)(Cc1ccncc1)C(=O)O; αMeY = C[C@](N)(Cc1ccc(O)cc1)C(=O)O; 4Pal = N[C@@H](Cc1ccncc1)C(=O)O; αMeL = CC(C)C[C@](C)(N)C(=O)O; αMeS = C[C@](N)(CO)C(=O)O; Orn = NCCC[C@H](N)C(=O)O; AEEA = NCCOCCOCC(=O)O; Aib = CC(C)(N)C(=O)O

Tests used:
Format in all cases: cell-based
hGIPR [1] = biological target: T1, hGIPR (Homo sapiens, UniProt P48546); assay: Functional cAMP activity in the presence of 1% HSA; conditions: read-out: cAMP Rel EC50, hGIPR
T1 sequence (P48546 22-466): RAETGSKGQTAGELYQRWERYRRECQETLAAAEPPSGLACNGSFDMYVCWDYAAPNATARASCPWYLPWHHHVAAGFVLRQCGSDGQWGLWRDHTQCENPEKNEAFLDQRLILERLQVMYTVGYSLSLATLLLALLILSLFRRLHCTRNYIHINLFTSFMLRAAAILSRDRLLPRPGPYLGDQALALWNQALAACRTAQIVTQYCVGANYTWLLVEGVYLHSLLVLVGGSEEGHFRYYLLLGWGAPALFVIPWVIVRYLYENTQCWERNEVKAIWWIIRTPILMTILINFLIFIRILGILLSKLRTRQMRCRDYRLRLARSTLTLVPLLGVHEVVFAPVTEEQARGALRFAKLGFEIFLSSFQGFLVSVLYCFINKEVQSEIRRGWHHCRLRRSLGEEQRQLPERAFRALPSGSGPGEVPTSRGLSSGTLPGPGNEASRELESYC

human GcgR = human GcgR (Homo sapiens, UniProt P47871); assay: Functional cAMP activity in the presence of 1% HSA; conditions: read-out: cAMP Rel EC50, hGcgR
Sequence of human GcgR (P47871 26-477): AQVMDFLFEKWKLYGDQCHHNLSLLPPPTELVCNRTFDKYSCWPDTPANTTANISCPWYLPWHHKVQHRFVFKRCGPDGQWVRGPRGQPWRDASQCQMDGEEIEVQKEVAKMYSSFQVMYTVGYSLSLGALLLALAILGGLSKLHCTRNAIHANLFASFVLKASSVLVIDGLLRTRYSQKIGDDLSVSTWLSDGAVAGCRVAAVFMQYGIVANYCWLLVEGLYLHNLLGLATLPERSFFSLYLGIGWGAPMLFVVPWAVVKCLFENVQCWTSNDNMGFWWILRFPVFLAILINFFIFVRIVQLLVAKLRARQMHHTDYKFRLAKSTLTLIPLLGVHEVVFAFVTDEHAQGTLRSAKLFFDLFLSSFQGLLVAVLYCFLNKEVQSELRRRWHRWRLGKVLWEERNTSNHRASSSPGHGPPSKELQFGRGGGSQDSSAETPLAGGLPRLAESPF

hGcgR = hGcgR (Homo sapiens, UniProt P47871); assay: Functional cAMP activation in the presence of 0.1% casein (no HSA); conditions: read-out: Relative cAMP EC50, hGcgR;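 further: intracellular cAMP rise after 30 min at 37 °C, read by HTRF against a cAMP standard curve, scaled from buffer only (0%) to maximal control ligand response (100%)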
Sequence of hGcgR (P47871 26-477): as above

hGLP-1R [2] = biological target: T2, hGLP-1R (Homo sapiens, UniProt P43220); assay: Functional cAMP activity in the presence of 1% HSA; conditions: read-out: cAMP Rel EC50, hGLP-1R
T2 sequence (P43220 24-463): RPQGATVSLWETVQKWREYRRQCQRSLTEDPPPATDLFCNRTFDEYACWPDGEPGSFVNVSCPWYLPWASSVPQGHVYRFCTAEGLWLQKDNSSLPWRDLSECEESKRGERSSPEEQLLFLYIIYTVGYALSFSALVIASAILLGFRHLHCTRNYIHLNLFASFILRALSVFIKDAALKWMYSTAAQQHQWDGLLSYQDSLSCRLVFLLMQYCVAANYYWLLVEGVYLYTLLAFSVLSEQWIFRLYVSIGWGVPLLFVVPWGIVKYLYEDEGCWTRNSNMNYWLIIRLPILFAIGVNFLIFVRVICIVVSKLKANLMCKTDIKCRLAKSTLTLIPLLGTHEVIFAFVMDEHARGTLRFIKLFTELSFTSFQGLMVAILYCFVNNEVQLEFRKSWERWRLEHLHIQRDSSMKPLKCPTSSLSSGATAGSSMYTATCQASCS

hGLP-1R [3] = biological target: T2, hGLP-1R; assay: Functional cAMP activation in the presence of 0.1% casein (no HSA); conditions: read-out: Relative cAMP EC50, hGLP-1R;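 on Relative cAMP EC50, hGIPR: intracellular cAMP rise after 30 min at 37 °C read by HTRF against a standard curve, scaled between buffer alone (0%) and top control ligand concentration (100%), four-parameter fit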;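 on Relative cAMP EC50, hGLP-1R: intracellular cAMP rise after 30 min at 37 °C read by HTRF, normalized between buffer only (0%) and maximal control ligand (100%), four-parameter variable-slope fit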
hGIPR [4] = biological target: T1, hGIPR; assay: as above; conditions: read-out: Relative cAMP EC50, hGIPR
[5] = in the presence of 0.1% casein (no HSA), geometric mean
[6] = HEK-293 clonal cell line, 1% HSA, geometric mean of relative EC50
[7] = in the presence of 0.1% casein (no HSA), geometric mean of relative EC50

| Compound | EC50 (hGIPR [1]) [nM] | EC50 (human GcgR) [nM] | EC50 (hGcgR) [nM] | EC50 (hGLP-1R [2]) [nM] | EC50 (hGLP-1R [3]) [nM] | EC50 (hGIPR [4]) [nM] | EC50 (hGcgR; [5]) [nM] | EC50 (hGLP-1R [3]; [5]) [nM] | EC50 (hGIPR [4]; [5]) [nM] | EC50 (hGIPR [1]; [6]) [nM] | EC50 (human GcgR; [6]) [nM] | EC50 (hGcgR; [7]) [nM] | EC50 (hGLP-1R [2]; [6]) [nM] | EC50 (hGLP-1R [3]; [7]) [nM] | EC50 (hGIPR [4]; [7]) [nM] |
| --- | --- | --- | --- | --- | --- | --- | --- | --- | --- | --- | --- | --- | --- | --- | --- |
| H-Y[Aib]QGT[αMePhe(2-F)]TSD[4Pal]SILLD[Orn]K([γGlu-γGlu-C18 diacid])AQ[Aib]AFIEYLQEGGPSSGAPPPSGTEE-NH2 [Example 581] | 7.29 | 1500 | 8.18 | 65.9 | 0.406 | 0.0812 |  |  |  |  |  |  |  |  |  |
| H-Y[Aib]QGTFTSDFSK[αMeL]LDKK([AEEA-γGlu-C18 diacid])AQ[Aib]AFIEYLLEGGPSSGAPPPSEG[AEEA]-NH2 [Example 56] | 30.3 | 265 |  | 167 |  |  | 2.8 | 4.07 | 0.315 |  |  |  |  |  |  |
| CC[C@H](C)[C@H](NC(=O)[C@H](CO)NC(=O)[C@H](Cc1ccc(O)cc1)NC(=O)[C@H](CC(=O)O)NC(=O)[C@H](CO)NC(=O)[C@@H](NC(=O)[C@](C)(Cc1ccccc1F)NC(=O)[C@@H](NC(=O)CNC(=O)[C@H](CCC(N)=O)NC(=O)C(C)(C)NC(=O)[C@@H](N)Cc1ccc(O)cc1)[C@@H](C)O)[C@@H](C)O)C(=O)N[C@@H](CC(C)C)C(=O)N[C@@H](CC(C)C)C(=O)N[C@@H](CC(=O)O)C(=O)N[C@@H](CCCN)C(=O)N[C@@H](CCCCNC(=O)COCCOCCNC(=O)COCCOCCNC(=O)CC[C@H](NC(=O)CCCCCCCCCCCCCCCCC(=O)O)C(=O)O)C(=O)N[C@@H](C)C(=O)N[C@@H](CCC(N)=O)C(=O)NC(C)(C)C(=O)N[C@@H](C)C(=O)N[C@@H](Cc1ccccc1)C(=O)N[C@H](C(=O)N[C@H](CCC(=O)O)C(=O)N[C@@H](Cc1ccc(O)cc1)C(=O)N[C@@H](CC(C)C)C(=O)N[C@@H](CC(C)C)C(=O)N[C@@H](CCC(=O)O)C(=O)NCC(=O)NCC(=O)N1CCC[C@H]1C(=O)N[C@@H](CO)C(=O)N[C@@H](CO)C(=O)NCC(=O)N[C@@H](C)C(=O)N1CCC[C@H]1C(=O)N1CCC[C@H]1C(=O)N1CCC[C@H]1C(=O)N[C@@H](CO)C(N)=O)[C@@H](C)CC [Example 427] | 4.25 | 1440 | 3.81 | 42.9 | 0.282 | 0.0121 |  |  |  |  |  |  |  |  |  |
| H-Y[Aib]QGTFTSDFS[Orn][αMeL]LDKK([AEEA-γGlu-γGlu-C18 diacid])AQ[Aib]AFIEYLLE[Aib]GHSSGAPPPSGS-NH2 [Example 243] | 12.1 | 711 |  | 610 |  |  | 6.86 | 6.46 | 0.178 |  |  |  |  |  |  |
| H-Y[Aib]QGT[αMePhe(2-F)]TSD[4Pal]SI[αMeL]LD[Orn]K([γGlu-γGlu-C18 diacid])AQ[αMe4Pal][Orn]FI[dE][αMeY]LIEGGPSSGEPPPEGTGE-NH2 [Example 688] | 0.61 | 182 | 2.06 | 19.5 | 0.304 | 0.00881 |  |  |  |  |  |  |  |  |  |
| H-Y[Aib]QGTFTSDFS[Orn][αMeL]LDKK([AEEA-γGlu-C18 diacid])AQ[Aib]AFIEYLLAGGPSSGAPPPSGSQ-OH [Example 88] | 24.7 | 915 |  | 363 |  |  | 7.48 | 3.45 | 0.177 |  |  |  |  |  |  |
| H-Y[Aib]QGTFTSD[4Pal]SQ[αMeL]LD[Orn]K([AEEA-γGlu-C18 diacid])AQ[αMe4Pal]AFIE[αMeY]LIE[Aib]GPSSGAPPPSGSEE-NH2 [Example 1108] | 5.22 | 468 |  | 76.2 |  |  | 4.96 | 0.752 | 0.0507 |  |  |  |  |  |  |
| Y[Aib]QGTFTSD[4Pal]SQ[αMeL]LD[Orn]K([γGlu-γGlu-C18 diacid])AQ[αMe4Pal]AFIEYLIE[Aib]GPSSGAPPPSGS-NH2 [Example 935] | 16.9 | 659 |  | 172 |  |  | 4.04 | 1.71 | 0.123 |  |  |  |  |  |  |
| H-Y[Aib]QGTFTSDYSK[αMeL]LDKK([AEEA-γGlu-C20 diacid])AQQAFIQWLIEGGPSSGEPPPSEG-NH2 [Example 314] | 65.9 | 1030 |  | 100 |  |  | 3.7 | 0.274 | 0.345 |  |  |  |  |  |  |
| CC[C@H](C)[C@H](NC(=O)[C@H](CC(C)C)NC(=O)[C@](C)(Cc1ccc(O)cc1)NC(=O)[C@@H](CCC(=O)O)NC(=O)[C@@H](NC(=O)[C@H](Cc1ccccc1)NC(=O)[C@H](CO)NC(=O)C(C)(C)NC(=O)[C@H](CCC(N)=O)NC(=O)[C@H](C)NC(=O)[C@H](CCCCNC(=O)CC[C@H](NC(=O)CC[C@H](NC(=O)CCCCCCCCCCCCCCCCC(=O)O)C(=O)O)C(=O)O)NC(=O)[C@H](CCCN)NC(=O)[C@H](CC(=O)O)NC(=O)[C@H](CC(C)C)NC(=O)[C@](C)(CC(C)C)NC(=O)[C@@H](NC(=O)[C@](C)(CO)NC(=O)[C@H](Cc1ccncc1)NC(=O)[C@H](CC(=O)O)NC(=O)[C@H](CO)NC(=O)[C@@H](NC(=O)[C@](C)(Cc1ccccc1F)NC(=O)[C@@H](NC(=O)CNC(=O)[C@H](CCC(N)=O)NC(=O)C(C)(C)NC(=O)[C@@H](N)Cc1ccc(O)cc1)[C@@H](C)O)[C@@H](C)O)[C@@H](C)CC)[C@@H](C)CC)C(=O)N[C@@H](CCC(=O)O)C(=O)NCC(=O)NCC(=O)N1CCC[C@H]1C(=O)N[C@@H](CO)C(=O)N[C@@H](CO)C(=O)NCC(=O)N[C@@H](CCC(=O)O)C(=O)N1CCC[C@H]1C(=O)N1CCC[C@H]1C(=O)N1CCC[C@H]1C(=O)N[C@@H](CCC(=O)O)C(N)=O [Example 436] (H-Y[Aib]QGT[αMePhe(2-F)]TSD[4Pal][αMeS]I[αMeL]LD[Orn]K([γGlu-γGlu-C18 diacid])AQ[Aib]SFI[dE][αMeY]LIEGGPSSGEPPPE-NH2; N-terminus assumed) | 1.18 | 182 | 2.27 | 11.7 | 0.173 | 0.0294 |  |  |  |  |  |  |  |  |  |
| H-Y[Aib]QGTFTSDFS[Orn][αMeL]LDKK([AEEA-γGlu-C20 diacid])AQ[Aib]AFIEYLLAGGPSSGEPPPSGS-NH2 [Example 92] | 62 | 2540 |  | 735 |  |  | 12 | 2.08 | 0.212 |  |  |  |  |  |  |
| H-Y[Aib]QGTFTSD[4Pal]SQ[αMeL]LDKK([Glu-γGlu-C18 diacid])AQ[αMe4Pal]AFIEYLIAGGPSSGAPPPSGSEE-NH2 [Example 1030] | 21 | 1830 |  | 385 |  |  | 9.42 | 1.72 | 0.122 |  |  |  |  |  |  |
| H-Y[Aib]QGT[αMePhe(2-F)]TSDYSKLLDEIAQK([AEEA-γGlu-C20 diacid])AFIEYLLEGGPSSGEPPPSEG-NH2 [Example 303] | 44.7 | 9950 |  | 257 |  |  | 6.1 | 1.13 | 0.116 |  |  |  |  |  |  |
| H-Y[Aib]QGT[αMePhe(2-F)]TSD[4Pal]SI[αMeL]LDKK([γGlu-γGlu-C18 diacid])AQ[Aib][Orn]FIEYLQEGGPSSGEPPPEGSEE-NH2 [Example 653] |  |  |  |  |  |  |  |  |  | 1.38 | 542 | 7.29 | 25 | 0.426 | 0.0303 |
